Source: ChEMBL document CHEMBL4823253, “Structure-Based Design of Selective LONP1 Inhibitors for Probing In Vitro Biology” (J Med Chem, 2021)
Active and inactive are the calls of the source. The rule behind the calls is not given here.

Assays:
[1] = target: T1, Lon protease homolog, mitochondrial (Homo sapiens, UniProt P36776); test: Inhibition of LONP1 (unknown origin) using QXL520-YRGITCSGRQK(5-FAM)-NH2 peptide as substrate incubated for 50 mins in presence of ATP by HTRF assay
T1 sequence (P36776 whole entry): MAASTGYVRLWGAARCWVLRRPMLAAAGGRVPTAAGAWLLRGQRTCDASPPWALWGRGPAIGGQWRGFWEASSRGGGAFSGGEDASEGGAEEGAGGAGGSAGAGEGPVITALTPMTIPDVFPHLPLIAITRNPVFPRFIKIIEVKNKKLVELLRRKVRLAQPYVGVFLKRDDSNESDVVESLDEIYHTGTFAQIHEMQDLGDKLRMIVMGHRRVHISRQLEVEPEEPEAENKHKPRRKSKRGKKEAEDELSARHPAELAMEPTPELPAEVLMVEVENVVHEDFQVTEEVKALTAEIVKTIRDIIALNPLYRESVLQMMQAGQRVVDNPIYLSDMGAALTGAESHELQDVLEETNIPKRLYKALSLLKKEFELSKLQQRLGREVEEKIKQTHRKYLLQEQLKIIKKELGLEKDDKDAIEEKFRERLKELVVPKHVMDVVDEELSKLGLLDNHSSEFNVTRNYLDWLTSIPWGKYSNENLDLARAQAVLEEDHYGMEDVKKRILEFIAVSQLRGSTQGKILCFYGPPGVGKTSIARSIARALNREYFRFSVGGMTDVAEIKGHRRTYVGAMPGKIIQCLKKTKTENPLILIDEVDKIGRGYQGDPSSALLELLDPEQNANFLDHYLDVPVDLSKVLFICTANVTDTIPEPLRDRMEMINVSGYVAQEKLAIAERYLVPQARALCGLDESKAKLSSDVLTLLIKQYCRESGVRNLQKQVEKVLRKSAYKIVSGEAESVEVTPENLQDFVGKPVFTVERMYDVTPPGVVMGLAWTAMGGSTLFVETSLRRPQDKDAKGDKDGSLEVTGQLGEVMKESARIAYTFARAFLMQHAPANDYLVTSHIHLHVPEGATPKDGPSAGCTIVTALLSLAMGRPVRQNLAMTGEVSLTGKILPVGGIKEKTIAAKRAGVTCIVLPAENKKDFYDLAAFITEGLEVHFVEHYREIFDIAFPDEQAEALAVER

20S proteasome = test: Inhibition of human erythrocytes 20S proteasome using QXL520-YRGITCSGRQK(5-FAM)-NH2 fluorogenic peptide as substrate preincubated for 10 mins followed by substrate addition and measured after 60 mins by HTRF assay; details: erythrocyte
[2] = target: T2, Cobalamin trafficking protein CblD (Homo sapiens) (UniProt Q9H3L0); test: Binding affinity to MMADHC in human LONP1 dependent NCI-H1568 cells assessed as increase in protein abundance relative to control; type: cell-based
T2 sequence (whole entry): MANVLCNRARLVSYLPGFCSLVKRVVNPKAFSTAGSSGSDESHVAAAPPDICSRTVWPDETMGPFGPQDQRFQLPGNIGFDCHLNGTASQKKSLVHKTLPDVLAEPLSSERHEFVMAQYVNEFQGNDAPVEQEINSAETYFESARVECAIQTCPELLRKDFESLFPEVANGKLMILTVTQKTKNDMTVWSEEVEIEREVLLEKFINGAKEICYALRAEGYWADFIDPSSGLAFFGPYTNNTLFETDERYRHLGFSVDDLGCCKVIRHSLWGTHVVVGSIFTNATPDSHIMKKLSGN

[3] = target: T2, Cobalamin trafficking protein CblD (Homo sapiens); test: Binding affinity to MMADHC in human LONP1 dependent Calu-6 cells assessed as increase in protein abundance by HTRF assay relative to control
[4] = target: T2, Cobalamin trafficking protein CblD (Homo sapiens); test: Binding affinity to MMADHC in human Flp-In-T-REx-293 stably expressing 3X-FLAG-tagged LOPN1 assessed as increase in protein abundance by mass spectrometric analysis
[5] = target: T2, Cobalamin trafficking protein CblD (Homo sapiens); test: Binding affinity to MMADHC in human LONP1 dependent NCI-H1944 cells assessed as increase in protein abundance at 10 uM by WES analysis relative to control; type: cell-based

Row | SMILES | IC50 [1] [nM] | IC50 (20S proteasome) [nM] | fold change (FC) [2] | fold change (FC) [3] | Activity [4] | fold change (FC) [5]
1 | O=C(N[C@H](Cc1ccccc1)C(=O)N[C@@H](CC1CCCCC1)B(O)O)c1cnccn1 | 92 | 541 |  |  |  | 
2 | CC(C)C[C@H](NC(=O)[C@@H](C)NC(=O)c1cnccn1)B(O)O | 433 | 2680 |  |  |  | 
3 | CCC[C@@H](NC(=O)c1cnccn1)C(=O)N[C@@H](CC1CCCCC1)B(O)O | 136 | > 10000 |  |  |  | 
4 | CC[C@@H](NC(=O)c1cnccn1)C(=O)N[C@@H](CC(C)C)B(O)O | 408 | > 10000 |  |  |  | 
5 | CCC[C@@H](NC(=O)c1cnccn1)C(=O)N[C@@H](Cc1ccccc1)B(O)O | 556 | > 10000 |  |  |  | 
6 | CCCC[C@@H](NC(=O)c1cnccn1)C(=O)N[C@@H](CC(C)C)B(O)O | 93 | > 10000 |  |  |  | 
7 | CC(C)C[C@H](NC(=O)[C@H](NC(=O)c1cnccn1)C(C)(C)C)B(O)O | 2850 | > 10000 |  |  |  | 
8 | CCC[C@@H](NC(=O)c1cnccn1)C(=O)N[C@@H](CCc1ccccc1)B(O)O | 92 | > 10000 |  |  |  | 
9 | CC(C)C[C@H](NC(=O)[C@@H](CC1CCCCC1)NC(=O)c1cnccn1)B(O)O | 137 | 843 |  |  |  | 
10 | CCC[C@@H](NC(=O)c1cnccn1)C(=O)N[C@@H](CC(C)C)B(O)O | 187 | > 10000 |  |  |  | 
11 | CC(C)C[C@H](NC(=O)[C@H](NC(=O)c1cnccn1)C(C)C)B(O)O | 546 | 3970 |  |  |  | 
12 | O=C(N[C@H](Cc1ccccc1)C(=O)N[C@@H](CCCCCBr)B(O)O)c1cnccn1 | 77 | 1940 |  |  |  | 
13 | CC(C)C[C@H](NC(=O)C(C)(C)NC(=O)c1cnccn1)B(O)O | 6200 |  |  |  |  | 
14 | O=C(N[C@H](Cc1ccccc1)C(=O)N[C@@H](Cc1ccccc1)B(O)O)c1cnccn1 | 109 | 679 |  |  |  | 

Compounds with a lower IC50 [1], results first:

Row | IC50 [1] [nM] | IC50 (20S proteasome) [nM] | fold change (FC) [2] | fold change (FC) [3] | Activity [4] | fold change (FC) [5] | SMILES
15 | 65 | 1040 |  |  |  |  | CC(C)CCC[C@H](NC(=O)[C@@H](Cc1ccccc1)NC(=O)c1cnccn1)B(O)O
16 | 59 | > 10000 | 30 | 30 | Active | 30 | CCC[C@@H](NC(=O)c1oc(C)nc1C)C(=O)N[C@@H](CCCc1ccccc1)B(O)O
17 | 38 | > 10000 |  |  |  |  | CCCC[C@H](NC(=O)[C@@H](CCC)NC(=O)c1cnccn1)B(O)O
18 | 34 | 262 |  |  |  |  | O=C(N[C@H](Cc1ccccc1)C(=O)N[C@@H](CCc1ccccc1)B(O)O)c1cnccn1
19 | 18 | 259 |  |  |  |  | O=C(N[C@H](Cc1ccccc1)C(=O)N[C@@H](CCCc1ccccc1)B(O)O)c1cnccn1
20 | 17 | > 10000 |  |  |  |  | CCC[C@@H](NC(=O)c1cnccn1)C(=O)N[C@@H](CCCc1ccccc1)B(O)O
